From patent US11478474B2, “2-(3′-(hydroxymethyl)-1-methyl-5-((5-(2-methyl-4-(oxetan-3-yl)piperazin-1-yl)pyridin-2-yl)amino)-6-oxo-1,6-dihydro-[3,4′-bipyridin]-2′-yl)-7,7-dimethyl-7,8-dihydro-2H-cyclopenta[4,5]pyrrolo[1,2-a]pyrazin-1(6H)-one as a BTK inhibitor” (HUTCHISON MEDIPHARMA LIMITED, priority 2020, dated 2022)
pIC50: −log10 of the molar value.

biological target: phosphorylated BTK in Ramos cells (Homo sapiens (Human), UniProt Q06187); assay: Determination of phosphorylated BTK in Ramos cells (BTK phospho-Y223 HTRF); type: cell-based; settings: anti-human IgM + hydrogen peroxide stimulation
Description: Determination of Phosphorylated BTK in Ramos Cells
(§1) 1. Reagents and Materials
Ramos cells: Ramos cells were purchased from American Standard Biological Collection Center ATCC Cell Bank, PRMI 1640 medium containing L-glutamine, 1.5 g/L of sodium bicarbonate, 2.383 g/L of HEPES solution, 0.11 g/L of sodium pyruvate and 4.5 g/L of glucose was used, added 10% fetal bovine serum FBS, and placed in a 5% CO2, 37° C. cell incubator for normal culture;
Phosphorylated BTK HTRF detection kit (BTK phospho-Y223 HTRF kit): Cisbio, Cat #63ADK017PEH;
Ramos cells were starved in PRMI 1640 medium with 1% FBS for 2 hours. The starved Ramos cells were diluted with Hank's balanced salt solution to 5.0×10^6 cells/ml, seeded in a 96-well plate with 20 μL/well (1.0×10^5 cells/well), and cultured in a 5% CO2, 37° C. cell incubator. After culturing for 1 hour, the test compound was diluted with Hank's balanced salt solution in 4-fold gradient to the corresponding concentrations, and then 5 μL/well of the diluted test compound with different concentrations (the final concentrations of the test compound were 3.0, 0.75, 0.188, 0.047, 0.012, 0.0029, 0.0007 and 0.00018 μM, and the final concentration of DMSO was 0.3%, double replicate wells) or 5 μL/well of control solution (1.5% DMSO, 8 replicate wells) were added to 20 μL/well of cell culture system, which incubated together for another hour, then 5 μL/well of a mixed solution of human immunoglobulin M (final concentration was 10 μg/mL) and hydrogen peroxide (final concentration was 3.3 mM) diluted with Hank's balanced salt solution was added to the treating wells for the test compound and the control treating wells for anti-human immunoglobulin M, and 5 μL/well of Hank's balanced salt solution was added to negative control treating wells. The plate was incubated in a 5% CO2, 37° C. cell incubator for 10 minutes.
10 μL/well of cell lysis buffer was added to each well of a 96-well plate, which was mixed well and lysed at room temperature for 30 minutes. 16 μL/well of lysis buffer was pipetted to a new 384 well plate, and then added 4 μL/well of phosphorylated BTK antibody, centrifuged (1000 rpm) for 1 minute, then shaken for 1 minute, further centrifuged (1000 rpm) for 1 minute, and finally placed in a constant temperature incubator overnight. Detection was performed on the next day.
The 384 well plate incubated overnight in the constant temperature incubator was taken out to detect the luminescence signal using the Envision microwell plate reader at the […]. The reading value at 665 nm/615 nm of each well multiplied by 104 was used as the signal value of each well.
The average signal value of the wells supplemented with the mixed solution of human immunoglobulin M (final concentration was 10 μg/mL) and hydrogen peroxide (final concentration was 3.3 mM) without the test compound was regarded as the high value, and the average signal value of the wells without immunoglobulin M stimulation and without the test compound was regarded as the low value. According to the signal value in each well, the inhibition ratio (%) of each concentration of compounds was calculated, and the 205 model in XL-Fit 5.3 software (ID Business Solutions Limited) was used to obtain an IC50 value.
The inhibition ratio is calculated as follows: inhibition ratio (%)=100%−{(treating well for the test compound−negative control treating well)/(control treating well for anti-human immunoglobulin M−negative control treating well)}×100%, wherein,
Treating well for the test compound: represents the signal value of Ramos cells treated with anti-human immunoglobulin M, hydrogen peroxide and the test compound.
Control treating well for anti-human immunoglobulin M: represents the signal value of Ramos cells treated with anti-human immunoglobulin M, hydrogen peroxide but without the test compound. […]

phosphorylated BTK in Ramos cells, sequence (Q06187 whole entry): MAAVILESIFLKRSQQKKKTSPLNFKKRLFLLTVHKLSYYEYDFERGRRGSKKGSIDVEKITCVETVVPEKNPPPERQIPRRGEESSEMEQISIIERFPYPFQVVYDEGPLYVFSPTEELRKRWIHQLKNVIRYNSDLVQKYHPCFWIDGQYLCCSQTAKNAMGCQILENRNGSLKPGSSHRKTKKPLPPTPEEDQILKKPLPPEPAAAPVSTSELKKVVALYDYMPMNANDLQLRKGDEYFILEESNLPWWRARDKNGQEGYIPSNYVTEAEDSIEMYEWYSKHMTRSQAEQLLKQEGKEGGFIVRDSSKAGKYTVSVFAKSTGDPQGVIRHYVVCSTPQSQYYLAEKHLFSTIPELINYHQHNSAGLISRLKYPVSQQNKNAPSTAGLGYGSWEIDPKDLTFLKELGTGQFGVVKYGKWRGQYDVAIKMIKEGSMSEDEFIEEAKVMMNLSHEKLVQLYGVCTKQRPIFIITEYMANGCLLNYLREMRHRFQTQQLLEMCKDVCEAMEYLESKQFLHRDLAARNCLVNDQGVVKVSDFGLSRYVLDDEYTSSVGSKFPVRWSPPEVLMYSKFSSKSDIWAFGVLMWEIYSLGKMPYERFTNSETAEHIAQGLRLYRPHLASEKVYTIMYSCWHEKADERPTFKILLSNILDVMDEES

Q: With “2-(3′-(hydroxymethyl)-5-((5-(2-methoxyethyl)-4-methyl-4,5,6,7-tetrahydropyrazolo[1,5-a]pyrazin-2-yl) amido)-1-methyl-6-oxo-1,6-dihydro-[3,4′-bispyridin]-2′-yl)-7,7-dimethyl-7,8-dihydro-2H-cyclopenta[4,5]pyrrolo[1,2-d][1,2,4]triazin-1(6H)-one optically Pure [Compound 120]” as the compound, how does the pIC50 read?
A: 8.30

Q: `CC1Cc2cc3c(=O)n(-c4nccc(-c5cc(Nc6ccc(N7CCN(C8COC8)C[C@@H]7C)cn6)c(=O)n(C)c5)c4CO)ccn3c2C1` (mixture of isomers) [Compound 160] was tested. Which pIC50 did it give?
A: 7.96

Q: `COCC(C)n1cc(Nc2nc(-c3ccnc(-n4ccn5c6c(cc5c4=O)CC(C)(C)C6)c3CO)cn(C)c2=O)nn1` (centres unmarked) [Compound 42] was tested. Which pIC50 did it give?
A: 6.47

Q: `CN1CCn2nc(Nc3cc(-c4ccnc(-n5ccn6c7c(cc6c5=O)CC(C)(C)C7)c4CO)cn(C)c3=O)cc2C1` [Compound 69, 2-(3′-(hydroxymethyl)-1-methyl-5-((5-methyl-4,5,6,7-tetrahydropyrazolo[1,5-a]pyrazin-2-yl)amino)-6-oxo-1,6-dihydro-[3,4′-bispyridin]-2′-yl)-7,7-dimethyl-7,8-dihydro-2H-cyclopenta[4,5]pyrrolo[1,2-a]pyrazin-1(6H)-one] was tested. Which pIC50 did it give?
A: 8.70

biological target: BTK recombinant protein (Homo sapiens (Human), UniProt Q06187); assay: Determination of biochemical BTK (Z'-LYTE kinase assay); settings: not given
From the text: Example 2 Determination of Biochemical BTK
as §1
BTK recombinant protein: Invitrogen, Cat #PV3363;
Z′-LYTE® kinase test kit-tyrosine 1 peptide: Invitrogen, Cat #PV3190;
Z′-LYTE® biochemical assay employs a fluorescence resonance energy transfer (FRET)—based, coupled-enzyme format and is based on the differential sensitivity of phosphorylated and non-phosphorylated peptides to proteolytic cleavage. Both ends of the short peptide substrate are labeled with two fluorescent groups to form a FRET paired combination. In the primary reaction (the Kinase Reaction), the kinase transfers the γ-phosphate of ATP to a single […] residue on the short peptide substrate. In the secondary reaction (the development reaction), the non-phosphorylated short peptides were recognized and cleaved by a site-specific protease (the development reagent). Phosphorylated short peptides can resist such cleavage. Cleavage of short peptides can disrupt the donor (such as coumarin) and receptor fluorophores (fluorescein) on the short peptides, while the phosphorylated short peptides can maintain FRET. The calculation method of the ratio is as follows, and the ratio of the respective emission signals generated by the donor fluorophores emitted (after excitation at 400 nm) to the receptors is calculated. Emission signal ratio=emitted light by coumarin (445 nm)/emitted light by fluorescein (520 nm). If the FRET short peptide is phosphorylated (such as no kinase inhibitor), the emitted light ratio will remain in a lower level. If the FRET short peptide is non-phosphorylated (such as kinase inhibitor), the emitted light ratio will be in a higher level. In this way, the inhibitory effects of different compound inhibitors on BTK kinase activity would be distinguished.
The experiment were carried out according to the instructions of the Z′-LYTE® kinase test kit-tyrosine 1 peptide. Reagent preparation: 1.33× kinase buffer: 5× kinase buffer was diluted with water to 1.33× kinase buffer; an enzyme solution: the kinase was dissolved in 1.33× kinase buffer with the final working concentration being 3.32 nM; a short peptide solution: a short peptide stock solution (1 mM dissolved in DMSO) was dissolved in 1.33× kinase buffer with the final working concentration being 2 μM; Z′-LYTE Tyr01 phosphorylated short peptide solution, 0.6 μl of stock solution (1 mM dissolved in DMSO) was dissolved in 149.4 μl of 1.33× kinase buffer; an ATP solution: an ATP stock solution (10 mM aqueous solution) was dissolved in 1.33× kinase buffer with the final working concentration being 32 μM; a color-developing solution: color-developing solution B was dissolved in color-developing buffer with the final working concentration being 1× color-developing solution; 4× compound preparation: the compound was diluted in 3-fold gradient concentration to finally obtain 4% DMSO aqueous solution containing different concentrations of the compound, with the final working concentration being 3000, 1000, 333.33, 111.11, 37.04, 12.35, 4.12, 1.37 nM, 8 concentration points in total.
Specific steps of the experiment: In the experiment, there were three control groups, each with 8 replicate wells, which were C1 100% inhibition group (no ATP), C2 0% inhibition group (with ATP), and C3 100% phosphorylation group, respectively. 2.5 μl of serially diluted compound was added to each well of a 384-well plate, with double replicate wells, and 4% DMSO solution was added to wells C1, C2, and C3. After that, except for wells C3, 2.5 μl of BTK enzyme solution was added to each remaining well, which was left to stand at 4° C. for 30 minutes. After that, except for wells C3, 2.5 μl of short peptide solution was added to each well, and 5 μl of phosphorylated short peptide solution was added to each of wells C3. 2.5 μl of 1.33× kinase buffer was added to each of wells C1 and C3, and 2.5 μl of ATP solution was added to each of the remaining wells. […]

BTK recombinant protein, sequence (Q06187 whole entry): as above

Q: How did the pIC50 turn out when “2-(3′-(hydroxymethyl)-5-((5-(2-methoxyethyl)-4-methyl-4,5,6,7-tetrahydropyrazolo[1,5-a]pyrazin-2-yl) amido)-1-methyl-6-oxo-1,6-dihydro-[3,4′-bispyridin]-2′-yl)-7,7-dimethyl-7,8-dihydro-2H-cyclopenta[4,5]pyrrolo[1,2-d][1,2,4]triazin-1(6H)-one optically Pure [Compound 120]” was run?
A: 8.10

Q: With `CC(O)c1c(-c2cc(Nc3ccc(N4CCN(C5COC5)C[C@@H]4C)cn3)c(=O)n(C)c2)ccnc1-n1ccn2c3c(cc2c1=O)CC(C)(C)C3` (mixture of isomers) [Compound 114] as the compound, how does the pIC50 read?
A: < 5.52

Q: How did the pIC50 turn out when `CC1Cc2cc3c(=O)n(-c4nccc(-c5cc(Nc6ccc(N7CCN(C8COC8)C[C@@H]7C)cn6)c(=O)n(C)c5)c4CO)ccn3c2C1` (mixture of isomers) [Compound 160] was run?
A: 8.52

Q: How did the pIC50 turn out when `[2H]C(O)c1c(-c2cc(Nc3ccc(N4CCN(C5COC5)C[C@@H]4C)cn3)c(=O)n(C([2H])([2H])[2H])c2)ccnc1-n1ccn2c3c(cc2c1=O)CC(C)(C)C3` (some centres unmarked) [Compound 38] was run?
A: > 9.00

Q: With `CCC(=O)Nc1cc(-c2ccnc(-n3ccn4c5c(cc4c3=O)CC(C)(C)C5)c2CO)cn(C)c1=O` [Compound 88] as the compound, how does the pIC50 read?
A: 6.87

Q: With `Cn1cc(-c2ccnc(-n3ccn4c5c(cc4c3=O)CC(C)(C)C5)c2CO)cc(N)c1=O` [Compound 98, 2-(5-amino-3′-(hydroxymethyl)-1-methyl-6-oxo-1,6-dihydro-[3,4′-bispyridin]-2′-yl)-7,7-dimethyl-7,8-dihydro-2H-cyclopenta[4,5]pyrrolo[1,2-a]pyrazin-1(6H)-one] as the compound, how does the pIC50 read?
A: 5.90

Q: `C[C@H]1CN(C2COC2)CCN1c1ccc(Nc2cc(-c3ccnc(-n4ccn5c6c(cc5c4=O)CC(C)(C)C6)c3CO)cn(C)c2=O)c(F)c1` [Compound 103] was tested. Which pIC50 did it give?
A: < 5.52

Q: How did the pIC50 turn out when `Cn1cc(-c2ccnc(-n3ccn4c5c(cc4c3=O)CC(C)(C)C5)c2CO)cc(NC(=O)C2CCC2)c1=O` [Compound 130] was run?
A: 6.50

Q: With `Cn1cc(-c2ccnc(-n3ccn4c5c(cc4c3=O)CC(C)(C)C5)c2CO)cc(NC(=O)c2ccccc2)c1=O` [Compound 131] as the compound, how does the pIC50 read?
A: 5.70

Q: How did the pIC50 turn out when `CCn1cc(Nc2cc(-c3ccnc(-n4ccn5c6c(cc5c4=O)CCC6)c3CO)cn(C)c2=O)nn1` [Compound 138] was run?
A: 6.66

Q: `COc1ccc(Nc2cc(-c3ccnc(-n4ccn5c6c(cc5c4=O)CCC6)c3CO)cn(C)c2=O)nc1` [Compound 146] was tested. Which pIC50 did it give?
A: 6.20

Q: `Cc1ccc(Nc2cc(-c3ccnc(-n4ccn5c6c(cc5c4=O)CCC6)c3CO)cn(C)c2=O)nn1` [Compound 147] was tested. Which pIC50 did it give?
A: 5.81

Q: With `COCCN1CCn2nc(Nc3cc(-c4ccnc(-n5ccn6c7c(cc6c5=O)CCC7)c4CO)cn(C)c3=O)cc2C1` [Compound 148] as the compound, how does the pIC50 read?
A: 6.95

Q: With `COC1CN(c2ccc(Nc3cc(-c4ccnc(-n5ccn6c7c(cc6c5=O)CCC7)c4CO)cn(C)c3=O)nc2)C1` [Compound 152] as the compound, how does the pIC50 read?
A: 6.45

Q: With `COCc1cc(Nc2cc(-c3ccnc(-n4ccn5c6c(cc5c4=O)CCC6)c3CO)cn(C)c2=O)nn1C` [Compound 153] as the compound, how does the pIC50 read?
A: 6.93

Q: With `Cn1cc(-c2ccnc(-n3ccn4c5c(cc4c3=O)CCC5)c2CO)cc(Nc2cc3n(n2)CCOC3)c1=O` [Compound 155] as the compound, how does the pIC50 read?
A: 6.91

Q: `Cc1nn(-c2nccc(-c3cc(Nc4ccc(N5CCN(C6COC6)C[C@@H]5C)cn4)c(=O)n(C)c3)c2CO)c(=O)c2cc3c(n12)CCCC3` [Compound 158] was tested. Which pIC50 did it give?
A: 6.71

Q: `COCCN1CCn2nc(Nc3cc(-c4ccnc(-n5cnn6c7c(cc6c5=O)CCCC7)c4CO)cn(C)c3=O)cc2C1` [Compound 194] was tested. Which pIC50 did it give?
A: 7.19

Q: `C[C@H]1COCCN1c1cnc(Nc2cc(-c3ccnc(-n4ncn5c6c(cc5c4=O)CC(C)(C)C6)c3CO)cn(C)c2=O)nc1` [Compound 195] was tested. Which pIC50 did it give?
A: 7.42

Q: How did the pIC50 turn out when `C[C@H]1CN(C2COC2)CCN1c1cnc(Nc2cc(-c3ccnc(-n4ncn5c6c(cc5c4=O)CC(C)(C)C6)c3CO)cn(C)c2=O)nc1` [Compound 197] was run?
A: 7.18

Q: With `C[C@@H]1CN(c2ccc(Nc3cc(-c4ccnc(-n5ccn6c7c(cc6c5=O)CC(C)(C)C7)c4CO)nn(C)c3=O)nc2)[C@@H](C)CN1C1COC1` [Compound 201] as the compound, how does the pIC50 read?
A: 8.30

Q: With `COCc1c(-c2cc(N(C)c3ccc(N4CCN(C5COC5)C[C@@H]4C)cn3)c(=O)n(C)c2)ccnc1-n1ccn2c3c(cc2c1=O)CC(C)(C)C3` [Compound 223, (S)-2-(3′-(methoxymethyl)-1-methyl-5-(methyl(5-(2-methyl-4-(oxetan-3-yl)piperazin-1-yl)pyridin-2-yl)amino)-6-oxo-1,6-dihydro-[3,4′-bispyridin]-2′-yl)-7,7-dimethyl-7,8-dihydro-2H-cyclopenta[4,5]pyrrolo[1,2-a]pyrazin-1(6H)-one] as the compound, how does the pIC50 read?
A: < 5.52
